Measured values: patent US20230031406A1, “COMPOUNDS AND COMPOSITIONS FOR TREATING CONDITIONS ASSOCIATED WITH NLRP ACTIVITY” (Novartis AG, priority 2018, published 2023)

The compounds below were run on PMA-differentiated THP-1 cells (assay: IL-1β production in PMA-differentiated THP-1 cells stimulated with gramicidin (hTHP-1 assay containing 2% fetal bovine serum; Procedures 1 and 2)). Conditions: Homo sapiens, THP-1, Table B1; 2% fetal bovine serum; class symbols; read-out: Average IC50 of compounds in hTHP-1 assay: hTHP-1 IC50.
Format: cell-based, human
In short: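 THP-1 cells were differentiated with PMA (20 ng/ml, 16-18 h), detached, and plated at 50,000 cells/well in RPMI 1640 with 2% FBS. They were pre-treated with compound (0.0017–100 μM, 0.37% DMSO) for 1 h, then stimulated with gramicidin (5 μM) for 2 h. Supernatant IL-1β was measured by HTRF.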

Row | SMILES | IC50 [µM]
1 | CC(C)c1ncc(F)c(C(C)C)c1NC(=O)N=S(N)(=O)c1sc(C(C)(C)O)cc1F (stereo not shown) [Compound 106, 3-Fluoro-N′-((5-fluoro-2,4-diisopropylpyridin-3-yl)carbamoyl)-5-(2-hydroxypropan-2-yl)thiophene-2-sulfonimidamide] | 0.04 to 0.2
2 | COCc1nc(C(C)(C)O)sc1S(N)(=O)=NC(=O)Nc1c2c(nc3c1CCC3(C)C)CCC2 (stereo not shown) [Compound 170, N′-((3,3-dimethyl-1,2,3,5,6,7-hexahydrodicyclopenta[b,e]pyridin-8-yl)carbamoyl)-2-(2-hydroxypropan-2-yl)-4-(methoxymethyl)thiazole-5-sulfonimidamide] | 1 to 5
3 | CC(C)(O)c1ncc(S(N)(=O)=NC(=O)Nc2c3c([n+]([O-])c4c2CCC4)CCC3)s1 (stereo not shown) [Compound 146, 8-(3-(amino(2-(2-hydroxypropan-2-yl)thiazol-5-yl)(oxo)-λ6-sulfaneylidene)ureido)-1,2,3,5,6,7-hexahydrodicyclopenta[b,e]pyridine 4-oxide] | 5 to 30
4 | CC(C)n1ccc(S(N)(=O)=NC(=O)Nc2c3c(nc4c2CCC4)CCC3)n1 (single isomer, unassigned) [Compound 119a, (R) or (S)-N′-((1,2,3,5,6,7-hexahydrodicyclo-penta[b,e]pyridin-8-yl)carbamoyl)-1-isopropyl-1H-pyrazole-3-sulfonimidamide] | 1 to 5

Same assay, conditions: Homo sapiens, THP-1, Table B2; 2% fetal bovine serum; class symbols; read-out: hTHP-1 IC50

Row | SMILES | IC50 [µM]
5 | COCCOC[C@@](C)(O)c1ncc(S(N)(=O)=NC(=O)Nc2c3c(nc4c2CCC4(C)C)CCC3)s1 (stereo partly drawn) [Compound 736, N′-((3,3-dimethyl-1,2,3,5,6,7-hexahydrodicyclopenta [b,e]pyridin-8-yl)carbamoyl)-2-((R)-2-hydroxy-1-(2-methoxyethoxy)propan-2-yl)thiazole-5-sulfonimidamide] | 1 to 5
6 | CCn1ccc(S(N)(=O)=NC(=O)Nc2c3c(nc4c2CCC42CC2)CCC3)n1 (stereo not shown) [Compound 604, 1-Ethyl-N′-((1′,5′,6′,7′-tetrahydro-2′H-spiro[cyclopropane-1,3′-dicyclopenta[b,e]pyridin]-8′-yl)carbamoyl)-1H-pyrazole-3-sulfonimidamide] | 0.2 to 1
7 | C[C@@H]1CCc2c1nc1c(c2NC(=O)N=S(N)(=O)c2ccn(C)n2)CCC1 (stereo partly drawn) [Compound 639, 1-Methyl-N′-(((R)-3-methyl-1,2,3,5,6,7-hexahydrodicyclopenta[b,e]pyridin-8-yl)carbamoyl)-1H-pyrazole-3-sulfonimidamide] | 1 to 5
8 | CC(C)(O)c1csc(S(N)(=O)=NC(=O)Nc2cc(C3CC3)nc3c2CCC3)c1 (single isomer, unassigned) [Compound 176b, (R) or (S)-N′-((2-cyclopropyl-6,7-dihydro-5H-cyclopenta[b]pyridin-4-yl)carbamoyl)-4-(2-hydroxypropan-2-yl)thiophene-2-sulfonimidamide] | 1 to 5
9 | CC(C)(O)c1ncc(S(N)(=O)=NC(=O)Nc2c3c(nc4c2CCC4C(=O)O)CCC3)s1 (stereo not shown) [Compound 703, 8-(3-(Amino(2-(2-hydroxypropan-2-yl)thiazol-5-yl)(oxo)-λ^6-sulfanylidene)ureido)-1,2,3,5,6,7-hexahydrodicyclopenta[b,e] pyridine-3-carboxylic acid] | 5 to 30
10 | Cc1c(CC2CC2)nc2c(c1NC(=O)N=S(N)(=O)c1cc(C(C)(C)O)cs1)CCC2 (stereo not shown) [Compound 655, N′-((2-(cyclopropylmethyl)-3-methyl-6,7-dihydro-5H-cyclopenta[b]pyridin-4-yl)carbamoyl)-4-(2-hydroxypropan-2-yl)thiophene-2-sulfonimidamide] | 5 to 30

Same assay, conditions: Homo sapiens, THP-1, Table B2; 2% fetal bovine serum; numeric bounds; read-out: hTHP-1 IC50

Row | SMILES | IC50 [µM]
11 | CC(C)(O)c1sc(S(N)(=O)=NC(=O)Nc2c3c(nc4c2CCC4)CCC3)cc1F (single isomer, unassigned) [Compound 678b, (S) or (R)-4-Fluoro-N′-((1,2,3,5,6,7-hexahydrodicyclopenta [b,e]pyridin-8-yl)carbamoyl)-5-(2-hydroxypropan-2-yl)thiophene-2-sulfonimidamide] | > 30
12 | Cc1c(C(F)(F)F)nc2c(c1NC(=O)N=S(N)(=O)c1cnn(C(F)F)c1)CCC2 (single isomer, unassigned) [Compound 617b, (S) or (R)-1-(Difluoromethyl)-N′-((3-methyl-2-(trifluoromethyl)-6,7-dihydro-5H-cyclopenta[b]pyridin-4-yl)carbamoyl)-1H-pyrazole-4-sulfonimidamide] | > 30
13 | Cc1cc(C(C)(C)O)sc1S(N)(=O)=NC(=O)Nc1c2c(nc3c1CCC3)CCC2 (single isomer, unassigned) [Compound 695a, (S) or (R)-N′-((1,2,3,5,6,7-hexahydrodicyclopenta [b,e]pyridin-8-yl)carbamoyl)-5-(2-hydroxypropan-2-yl)-3-methylthiophene-2-sulfonimidamide] | > 30

Same assay, conditions: Homo sapiens, THP-1, Table B3; hTHP-1 assay, 2% fetal bovine serum; class symbols; read-out: IC50

Row | SMILES | IC50 [µM]
14 | CCn1cc(F)c(S(N)(=O)=NC(=O)Nc2c(C)c(C3CC3)nc3c2CCC3)n1 (stereo not shown) [Example 637, N′-((2-cyclopropyl-3-methyl-6,7-dihydro-5H-cyclopenta[b]pyridin-4-yl)carbamoyl)-1-ethyl-4-fluoro-1H-pyrazole-3-sulfonimidamide] | 0.2 to 1

Same assay, conditions: Homo sapiens, THP-1, Table B3; hTHP-1 assay, 2% fetal bovine serum; numeric values; read-out: IC50

Row | SMILES | IC50 [µM]
15 | CC1(C)CCc2c1nc1c(c2NC(=O)NS(=N)(=O)c2cnc([C@@](C)(O)COCCOCCOCCOCCO)s2)CCC1 (stereo partly drawn) [Example 584, 2-((S)-1,14-dihydroxy-3,6,9,12-tetraoxapentadecan-14-yl)-N-((3,3-dimethyl-1,2,3,5,6,7-hexahydrodicyclopenta[b,e]pyridin-8-yl)carbamoyl)thiazole-5-sulfonimidamide] | > 30

Same assay, conditions: Table B1; 2% fetal bovine serum; class symbols; read-out: Average IC50 of compounds in hTHP-1 assay: hTHP-1 IC50

Row | SMILES | IC50 [µM]
16 | CC(C)(O)c1nc(CO)c(S(N)(=O)=NC(=O)Nc2c3c(nc4c2CCC4(C)C)CCC3)s1 (single isomer, unassigned) [Compound 121a, (R) or (S)-N′-((3,3-dimethyl-1,2,3,5,6,7-hexahydro-dicyclopenta[b,e]pyridin-8-yl)carbamoyl)-4-(hydroxymethyl)-2-(2-hydroxypropan-2-yl)thiazole-5-sulfonimidamide] | 0.04 to 0.2
17 | CC1CCc2c1nc1c(c2NC(=O)N=S(N)(=O)c2sc(C(C)(C)O)cc2F)CCC1 (single isomer, unassigned) [Compound 103bb, (R,S) or (R,R)-3-fluoro-5-(2-hydroxypropan-2-yl)-N′-((3-methyl-1,2,3,5,6,7-hexahydrodicyclo-penta[b,e]pyridin-8-yl)carbamoyl)thiophene-2-sulfonimidamide] | 0.2 to 1
18 | CC(C)(O)c1ncc(S(N)(=O)=NC(=O)Nc2c3c(nc4c2CCC4)CCC3)s1 (single isomer, unassigned) [Compound 128b, (S) or (R)-N′-((1,2,3,5,6,7-hexahydrodicyclo-penta[b,e]pyridin-8-yl)carbamoyl)-2-(2-hydroxypropan-2-yl)thiazole-5-sulfonimidamide] | 5 to 30
19 | CC(C)n1ccc(S(N)(=O)=NC(=O)Nc2c3c(nc4c2CCC4(C)C)CCC3)n1 (single isomer, unassigned) [Compound 126b, (S) or (R)-N′-((3,3-dimethyl-1,2,3,5,6,7-hexahydro-dicyclopenta[b,e]pyridin-8-yl)carbamoyl)-1-isopropyl-1H-pyrazole-3-sulfonimidamide] | 5 to 30

Same assay, conditions: Table B2; 2% fetal bovine serum; class symbols; read-out: hTHP-1 IC50

Row | SMILES | IC50 [µM]
20 | CC(C)c1c(C2CC2)nc2c(c1NC(=O)N=S(N)(=O)c1cc(C(C)(C)O)cs1)CCC2 (single isomer, unassigned) [Compound 667a, (S) or (R)-N′-((2-cyclopropyl-3-isopropyl-6,7-dihydro-5H-cyclopenta[b]pyridin-4-yl)carbamoyl)-4-(2-hydroxypropan-2-yl)thiophene-2-sulfonimidamide] | 5 to 30
21 | CC1(C)CCc2c1nc1c(c2NC(=O)N=S(N)(=O)c2sc(C(C)(O)CO)cc2F)CCC1 (single isomer, unassigned) [Compound 699c, (R, S) and (S, S) or (S, R) and (R, R)-5-(1,2-Dihydroxypropan-2-yl)-N′-((3,3-dimethyl-1,2,3,5,6,7-hexahydrodicyclopenta [b,e]pyridin-8-yl)carbamoyl)-3-fluorotliophene-2-sulfonimidamide] | 5 to 30

Same assay, conditions: Table B3; hTHP-1 assay, 2% fetal bovine serum; class symbols; read-out: IC50

Row | SMILES | IC50 [µM]
22 | CCc1c(CC(F)(F)F)nc2c(c1NC(=O)N=S(N)(=O)c1sc(C(C)(C)O)cc1F)CCC2 (single isomer, unassigned) [Example 640, (S) or (R)-N′-((3-ethyl-2-(2,2,2-trifluoroethyl)-6,7-dihydro-5H-cyclopenta[b]pyridin-4-yl)carbamoyl)-3-fluoro-5-(2-hydroxypropan-2-yl) thiophene-2-sulfonimidamide] | 5 to 30
23 | Cc1nc2c(c(NC(=O)N=S(N)(=O)c3nn(C(F)F)cc3F)c1-c1ccccc1)CCC2 (single isomer, unassigned) [Example 727, (R) or (S)-1-(difluoromethyl)-4-fluoro-N′-((2-methyl-3-phenyl-6,7-dihydro-5H-cyclopenta[b]pyridin-4-yl)carbamoyl)-1H-pyrazole-3-sulfonimidamide] | 0.04 to 0.2
24 | CCc1c(CC(F)(F)F)nc2c(c1NC(=O)N=S(N)(=O)c1sc(C(C)(C)O)cc1F)CCC2 (single isomer, unassigned) [Example 639, (R) or (S)-N′-((3-ethyl-2-(2,2,2-trifluoroethyl)-6,7-dihydro-5H-cyclopenta[b]pyridin-4-yl)carbamoyl)-3-fluoro-5-(2-hydroxypropan-2-yl) thiophene-2-sulfonimidamide] | 0.2 to 1
25 | CC(C)(O)c1cc(F)c(S(N)(=O)=NC(=O)Nc2c3c(nc(C(F)(F)F)c2C2CC2)CCC3)s1 (single isomer, unassigned) [Example 659, (R) or (S)-N′-((3-cyclopropyl-2-(trifluoromethyl)-6,7-dihydro-5H-cyclopenta[b]pyridin-4-yl)carbamoyl)-3-fluoro-5-(2-hydroxypropan-2-yl) thiophene-2-sulfonimidamide] | 0.2 to 1
